From ChEMBL document CHEMBL5506074, “Discovery and Optimization of Tetrahydroisoquinoline Derivatives To Enhance Lysosome Biogenesis as Preclinical Candidates for the Treatment of Alzheimer's Disease” (J Med Chem, 2024) come the findings set out here.

A short description of series [1]: Induction of TFEB nuclear translocation in human HeLa cells expressing EGFP at 30 uM measured at 6 hrs by fluorescence microscopic analysis. Format: functional.
Series [2] is described as follows: Induction of TFEB nuclear translocation in human HeLa cells expressing EGFP at 30 uM measured at 3 hrs by fluorescence microscopic analysis. Format: functional.
The subject of series [3] is HeLa. The series is described as follows: Cytotoxicity against human HeLa cells at 30 uM. Format: toxicity, cell-based.
The nature of series [4]: Induction of TFEB nuclear translocation in human HeLa cells expressing EGFP at 10 uM measured at 6 hrs by fluorescence microscopic analysis. Format: functional.
Series [5] is described as follows: Induction of TFEB nuclear translocation in human HeLa cells expressing EGFP at 10 uM measured at 3 hrs by fluorescence microscopic analysis. Format: functional.
Series [6] concerns HeLa. The series can be described thus: Induction of lysosome biogenesis in human HeLa cells assessed as increase in number of acidified lysosomes at 10 uM incubated for 24 hrs by LysiTracker red staining based flow cytometry analysis. Format: functional, cell-based. For orientation: Flow cytometry measures light scatter and fluorescence of single cells or particles in a stream.

The source made the active and inactive calls. The rule behind the calls is not given here.

As for `COc1cc2c(cc1O)C(CCc1c[nH]c3ccccc13)N(CC1CCOCC1)CC2` (stereo not drawn), the Activity was 77% in series [1]; 75% in series [2]; “Toxic” in the series with HeLa [3]; 37% in series [4]; 22% in series [5].
The corresponding values for `c1ccc2c(CCC3c4cc5c(cc4CCN3CC3CCNCC3)OCO5)c[nH]c2c1` (stereo not drawn) are 100%, 96%, “Toxic”, 35% and 22%.
On to `Oc1ccc2[nH]cc(CCC3c4cc5c(cc4CCN3CC3CCOCC3)OCO5)c2c1` (stereo not drawn), for which the Activity in series [1] was 81%; in series [2] it was 72%; in series [4], 21%; in series [5], 15%.
The corresponding values for `COCCN1CCc2cc3c(cc2C1CCc1c[nH]c2ccccc12)OCO3` (stereo not drawn) are 80%, 70%, 30% and 30%.
In the same order, the values of `COc1ccc2[nH]cc(CCC3c4cc5c(cc4CCN3CC3CCOCC3)OCO5)c2c1` (stereo not drawn) are 98%, 88%, 76% and 74%.
`COc1cc2c(cc1OC)C(CCc1c[nH]c3ccc(Cl)cc13)N(CC1CCOCC1)CC2` (stereo not drawn): the Activity was 90% in series [1], 84% in series [2], 37% in series [4] and 27% in series [5].
As for `Fc1ccc2[nH]cc(CCC3NCCc4cc5c(cc43)OCO5)c2c1` (stereo not drawn), the Activity in series [1] was 92%; in series [2] it was 88%; in series [4], 54%; in series [5] it was 36%.
In the case of `CN1CCC(CN2CCc3cc4c(cc3C2CCc2c[nH]c3ccccc23)OCO4)CC1` (stereo not drawn), the Activity in series [1] was 81%; in series [2], 80%; in the series on HeLa [3], “Toxic”; in series [4], 40%; in series [5] it was 30%.
Turning to `N#Cc1ccc2[nH]cc(CCC3c4cc5c(cc4CCN3CC3CCOCC3)OCO5)c2c1` (stereo not drawn), the Activity amounted to 64% in series [1], 64% in series [2], 10% in series [4] and 10% in series [5].
As to `c1ccc2c(CCC3c4cc5c(cc4CCN3CC3CCOCC3)OCO5)csc2c1` (stereo not drawn), the Activity was determined as 20% in series [1], 15% in series [2], 5% in series [4] and 5% in series [5].
`COc1cc2c(cc1F)C(CCc1c[nH]c3ccccc13)N(CC1CCOCC1)CC2` (stereo not drawn): the Activity is 79% in series [1], 70% in series [2], 31% in series [4] and 17% in series [5].
With `Oc1cc2c(cc1O)C(CCc1c[nH]c3ccccc13)N(CC1CCOCC1)CC2` (stereo not drawn), the Activity in series [1] is given as 60%; in series [2], 28%; in the series with HeLa [3] it was “Toxic”; in series [4], 10%; in series [5], 10%.
Turning to `c1ccc(COc2ccc3[nH]cc(CCC4c5cc6c(cc5CCN4CC4CCOCC4)OCO6)c3c2)cc1` (stereo not drawn), the Activity in series [1] worked out at 88%; in series [2], 75%; in series [4] it was 30%; in series [5], 12%.
In the case of `COc1cc2c(cc1C)C(CCc1c[nH]c3ccccc13)N(CC1CCOCC1)CC2` (stereo not drawn), the Activity is 81% in series [1], 76% in series [2], 30% in series [4] and 18% in series [5].
As to `CC(=O)N1CCc2cc3c(cc2C1CCc1c[nH]c2ccccc12)OCO3` (stereo not drawn), the Activity was 10% in series [1], 8% in series [2], 7% in series [4] and 6% in series [5].
`c1ccc2c(CC[C@@H]3NCCc4cc5c(cc43)OCO5)c[nH]c2c1`: the Activity in series [1] is on record as 96%; in series [2] it was 89%; in series [4], 34%; in series [5], 30%.
Turning to `CCCN1CCc2cc3c(cc2C1CCc1c[nH]c2ccccc12)OCO3` (stereo not drawn), the Activity in series [1] was found to be 80%; in series [2], 55%; in series [4], 12%; in series [5], 11%.
In the case of `c1ccc(CN2CCc3cc4c(cc3C2CCc2c[nH]c3ccccc23)OCO4)cc1` (stereo not drawn), the Activity in series [1], in series [2], in series [4] and in series [5] was 10% in each case.
Take `Cn1cc(CCC2c3cc4c(cc3CCN2CC2CCOCC2)OCO4)c2ccccc21` (stereo not drawn): the Activity in series [1] is 26%; in series [2] it was 26%; in series [4], 5%; in series [5], 5%.
For the molecule `O=CN1CCc2cc3c(cc2C1CCc1c[nH]c2ccccc12)OCO3` (stereo not drawn), the Activity came to 4% in series [1], 6% in series [2], 5% in series [4] and 6% in series [5].
In the case of `c1ccc2c(CCC3c4cc5c(cc4CCN3CC3CCOCC3)OCO5)c[nH]c2c1` (stereo not drawn), the Activity came out at 93% in series [1], 86% in series [2], 67% in series [4] and 47% in series [5].
`CCN1CCc2cc3c(cc2C1CCc1c[nH]c2ccccc12)OCO3` (stereo not drawn): the Activity in series [1] is 84%; in series [2], 65%; in series [4], 22%; in series [5] it was 9%.
In the same order, the values of `NC(=O)CN1CCc2cc3c(cc2C1CCc1c[nH]c2ccccc12)OCO3` (stereo not drawn) are 20%, 20%, 5% and 5%.
For the molecule `COc1ccc2[nH]cc(CC[C@H]3c4cc(OC)c(OC)cc4CCN3CC3CCOCC3)c2c1`, the Activity in series [1] is recorded as 91%; in series [2] it was 85%; in series [4] it was 61%; in series [5], 44%.
The corresponding values for `c1ccc2c(CCC3c4cc5c(cc4CCN3Cc3ccncc3)OCO5)c[nH]c2c1` (stereo not drawn) are 90%, 80%, 50% and 45%.
Regarding `COc1cc2c(cc1O)CCN(CC1CCOCC1)C2CCc1c[nH]c2ccccc12` (stereo not drawn), the Activity in series [1] was 80%; in series [2], 70%; with HeLa [3], “Toxic”; in series [4] it was 20%; in series [5], 20%.
`COc1cc2c(cc1OC)C(CCc1c[nH]c3ccc(O)cc13)N(CC1CCOCC1)CC2` (stereo not drawn): the Activity in series [1] is listed as 88%; in series [2], 85%; in the series on HeLa [3], “Toxic”; in series [4] it was 34%; in series [5], 25%.
For the molecule `Fc1ccc2[nH]cc(CC[C@@H]3c4cc5c(cc4CCN3CC3CCOCC3)OCO5)c2c1`, the Activity in series [1] amounted to 82%; in series [2] it was 70%; in series [4], 33%; in series [5], 29%.
In the case of `c1cnc2[nH]cc(CCC3NCCc4cc5c(cc43)OCO5)c2c1` (stereo not drawn), the Activity in series [1] was 70%; in series [2], 70%; in the series with HeLa [3], “Toxic”; in series [4] it was 30%; in series [5], 30%.
Consider `CC(C)CCN1CCc2cc3c(cc2C1CCc1c[nH]c2ccccc12)OCO3` (stereo not drawn), for which the Activity is 80% in series [1], 70% in series [2], 20% in series [4] and 20% in series [5].
With `COc1ccc2[nH]cc(CC[C@@H]3c4cc(OC)c(OC)cc4CCN3CC3CCOCC3)c2c1`, the Activity in series [1] is 80%; in series [2], 74%; in series [4], 37%; in series [5], 23%.
The corresponding values for `Clc1ccc2[nH]cc(CCC3c4cc5c(cc4CCN3CC3CCOCC3)OCO5)c2c1` (stereo not drawn) are 92%, 83%, 20% and 15%.
With `c1cnc2[nH]cc(CCC3c4cc5c(cc4CCN3CC3CCOCC3)OCO5)c2c1` (stereo not drawn), the Activity in series [1] was found to be 64%; in series [2] it was 64%; in series [4], 10%; in series [5], 10%.
Turning to `CC(C)N1CCc2cc3c(cc2C1CCc1c[nH]c2ccccc12)OCO3` (stereo not drawn), the Activity stood at 75% in series [1], 70% in series [2], 33% in series [4] and 22% in series [5]. The outcome in the series with HeLa [6] was Active.
`Cc1ccc2[nH]cc(CCC3NCCc4cc5c(cc43)OCO5)c2c1` (stereo not drawn): the Activity in series [1] was 60%; in series [2], 45%; in series [4] it was 10%; in series [5], 10%.
